Measurements taken from US9109041B2, “Analog compounds of analgesic peptides derived from the venom of crotalus durissus terrificus snakes, their uses, compositions, methods of preparation and purification” (priority 2004, dated 2015).

Assays:
[1] = tested on: thermal nociception (hot plate 50° C.); test: hot plate test; assay type: in vivo, mice; conditions: for latency time (reaction time), FM (s) ± S.E.M.: 2 hours after treatment; for latency time (reaction time), IM (s) ± S.E.M.: before treatment
Protocol: This test is used for evaluation of drugs that interfere with nociception in the Central Nervous System, as for example, morphine and derived products, since the thermal stimulus activates directly the nociceptor, avoiding tissue lesion and consequent inflammation. The data obtained in this test indicate that the antinociceptive effect of a compound is mainly due to a supraspinally integrated response.
This test was performed in accordance to the method described by Jacob, J. J. C. and Ramabadran, K. (Br. J. Pharmacol., 64:91-8, 1978). For this test, mice were placed on a metal surface kept at 50° C.±1. Results are expressed as the latency time (in seconds—s) to observe the licking of both anterior feet (reaction time). This test was applied before (initial measurement—IM) and 2 hours after the treatment of the animals (final measurement—FM) with saline (control) or with the synthetic peptide (1 and 3 μg/kg in 200 μl), orally. Each animal was considered as their own control. The results were analyzed comparing the mean values of the IM and FM or, when determined, by comparing the mean values obtained in the different experimental groups (Table 22).

[2] = tested on: prostaglandin E2-induced hyperalgesia; test: rat paw pressure test, prostaglandin E2-induced hyperalgesia

Q: Which results are given for “Xaa-Phe-Ser-Pro-Glu-Asn-Cys-Gln-Gly-Glu-Ser-Gln-Pro-Cys [SEQ ID NO: 2]”?
A: latency time (reaction time), FM (s) ± S.E.M. ([1]; 1 μg/kg p.o.): 25 ± 0.68 s; latency time (reaction time), IM (s) ± S.E.M. ([1]; 1 μg/kg p.o.): 18 ± 0.64 s; latency time (reaction time), FM (s) ± S.E.M. ([1]; 3 μg/kg p.o.): 27 ± 1.06 s; latency time (reaction time), IM (s) ± S.E.M. ([1]; 3 μg/kg p.o.): 22 ± 1.01 s; pain threshold, FM (g) ± S.E.M ([2]; 0.00000256 μg/paw i.pl., 3 h after PGE2 100 ng/paw i.pl.): 57 ± 5.34 g; pain threshold, IM (g) ± S.E.M. ([2]; 0.00000256 μg/paw i.pl., before PGE2): 72 ± 1.12 g; pain threshold, FM (g) ± S.E.M ([2]; 0.0000128 μg/kg i.v., 3 h after PGE2 100 ng/paw i.pl.): 54 ± 3.04 g; pain threshold, IM (g) ± S.E.M. ([2]; 0.0000128 μg/kg i.v., before PGE2): 70 ± 2.05 g; pain threshold, FM (g) ± S.E.M ([2]; 0.0000128 μg/paw i.pl., 3 h after PGE2 100 ng/paw i.pl.): 62 ± 3.22 g; pain threshold, IM (g) ± S.E.M. ([2]; 0.0000128 μg/paw i.pl., before PGE2): 71 ± 2.39 g; pain threshold, FM (g) ± S.E.M ([2]; 0.000064 μg/kg i.v., 3 h after PGE2 100 ng/paw i.pl.): 54 ± 2.39 g; pain threshold, IM (g) ± S.E.M. ([2]; 0.000064 μg/kg i.v., before PGE2): 68 ± 1.44 g; pain threshold, FM (g) ± S.E.M ([2]; 0.00032 μg/kg i.v., 3 h after PGE2 100 ng/paw i.pl.): 63 ± 5.16 g; pain threshold, IM (g) ± S.E.M. ([2]; 0.00032 μg/kg i.v., before PGE2): 72 ± 1.84 g; pain threshold, FM (g) ± S.E.M ([2]; 0.00032 μg/paw i.pl., 3 h after PGE2 100 ng/paw i.pl.): 60 ± 3.25 g; pain threshold, IM (g) ± S.E.M. ([2]; 0.00032 μg/paw i.pl., before PGE2): 67 ± 2.35 g; pain threshold, FM (g) ± S.E.M ([2]; 0.0016 μg/kg i.v., 3 h after PGE2 100 ng/paw i.pl.): 67 ± 2.35 g; pain threshold, IM (g) ± S.E.M. ([2]; 0.0016 μg/kg i.v., before PGE2): 74 ± 0.92 g; pain threshold, FM (g) ± S.E.M ([2]; 0.0016 μg/kg p.o., 3 h after PGE2 100 ng/paw i.pl.): 64 ± 1.00 g; pain threshold, IM (g) ± S.E.M. ([2]; 0.0016 μg/kg p.o., before PGE2): 78 ± 1.22 g; pain threshold, FM (g) ± S.E.M ([2]; 0.0016 μg/paw i.pl., 3 h after PGE2 100 ng/paw i.pl.): 67 ± 1.12 g; pain threshold, IM (g) ± S.E.M. ([2]; 0.0016 μg/paw i.pl., before PGE2): 72 ± 1.84 g; pain threshold, FM (g) ± S.E.M ([2]; 0.008 μg/kg i.v., 3 h after PGE2 100 ng/paw i.pl.): 73 ± 4.74 g; pain threshold, IM (g) ± S.E.M. ([2]; 0.008 μg/kg i.v., before PGE2): 69 ± 2.26 g; pain threshold, FM (g) ± S.E.M ([2]; 0.008 μg/kg p.o., 3 h after PGE2 100 ng/paw i.pl.): 71 ± 2.39 g; pain threshold, IM (g) ± S.E.M. ([2]; 0.008 μg/kg p.o., before PGE2): 79 ± 1.25 g; pain threshold, FM (g) ± S.E.M ([2]; 0.04 μg/kg p.o., 3 h after PGE2 100 ng/paw i.pl.): 75 ± 1.87 g; pain threshold, IM (g) ± S.E.M. ([2]; 0.04 μg/kg p.o., before PGE2): 77 ± 1.22 g; pain threshold, FM (g) ± S.E.M ([2]; 0.2 μg/kg p.o., 3 h after PGE2 100 ng/paw i.pl.): 84 ± 1.87 g; pain threshold, IM (g) ± S.E.M. ([2]; 0.2 μg/kg p.o., before PGE2): 77 ± 2.00 g; pain threshold, FM (g) ± S.E.M ([2]; 1 μg/kg p.o. + CTOP 20 μg/leg i.pl. with PGE2, 3 h after PGE2): 114 ± 1.87 g; pain threshold, IM (g) ± S.E.M. ([2]; 1 μg/kg p.o. + CTOP 20 μg/leg i.pl., before PGE2): 77 ± 1.22 g; pain threshold, FM (g) ± S.E.M ([2]; 1 μg/kg p.o. + ICI174,864 10 μg/paw i.pl. with PGE2, 3 h after PGE2): 114 ± 1.00 g; pain threshold, IM (g) ± S.E.M. ([2]; 1 μg/kg p.o. + ICI174,864 10 μg/paw i.pl., before PGE2): 78 ± 1.22 g; pain threshold, FM (g) ± S.E.M ([2]; 1 μg/kg p.o. + nor-Binalthorphimine 50 μg/leg i.pl. with PGE2, 3 h after PGE2): 56 ± 1.87 g; pain threshold, IM (g) ± S.E.M. ([2]; 1 μg/kg p.o. + nor-Binalthorphimine 50 μg/leg i.pl., before PGE2): 77 ± 1.22 g; pain threshold, IM (g) ± S.E.M. ([2]; 1 μg/kg p.o., 0 h, before administration (Table 6)): 79 ± 1.00 g; pain threshold, FM (g) ± S.E.M ([2]; 1.0 μg/kg p.o., 3 h after PGE2 100 ng/paw i.pl. (Table 2)): 108 ± 2.00 g; pain threshold, FM (g) ± S.E.M ([2]; 1 μg/kg p.o., 3 h after PGE2 100 ng/paw i.pl. (Table 7)): 111 ± 3.32 g; pain threshold, FM (g) ± S.E.M ([2]; 1 μg/kg p.o., 24 h after administration, PGE2 100 ng/paw 3 h before measurement): 126 ± 3.32 g; pain threshold, FM (g) ± S.E.M ([2]; 1 μg/kg p.o., 48 h after administration, PGE2 100 ng/paw 3 h before measurement): 121 ± 1.87 g; pain threshold, FM (g) ± S.E.M ([2]; 1 μg/kg p.o., 72 h after administration, PGE2 100 ng/paw 3 h before measurement): 111 ± 4.3 g; pain threshold, FM (g) ± S.E.M ([2]; 1 μg/kg p.o., 96 h after administration, PGE2 100 ng/paw 3 h before measurement): 117 ± 2.5 g; pain threshold, FM (g) ± S.E.M ([2]; 1 μg/kg p.o., 120 h after administration, PGE2 100 ng/paw 3 h before measurement): 130 ± 2.24 g; pain threshold, FM (g) ± S.E.M ([2]; 1 μg/kg p.o., 144 h after administration, PGE2 100 ng/paw 3 h before measurement): 59 ± 2.39 g; pain threshold, IM (g) ± S.E.M. ([2]; 1.0 μg/kg p.o., before PGE2 (Table 2)): 77 ± 2.00 g; pain threshold, IM (g) ± S.E.M. ([2]; 1 μg/kg p.o., before PGE2 (Table 7)): 77 ± 1.22 g
